This is an account of results in patent US20130184272A1, “DIABETES THERAPEUTIC AGENT” (TAKEDA PHARMACEUTICAL COMPANY LIMITED, priority 2010, published 2013).

Test [1] concerns C2C12 cell. Put plainly: Sugar metabolism promoting activity in muscle cell (lactic acid production). In kind it is cell-based, Mouse. The following applies: Mus musculus, 48 h; compound 1 μM, 2 days, C2C12 myotubes; without drug = 100%; read-out: lactic acid production promoting action (%). How it is done:
• (1) In the same manner as in Example 1, C2C12 cell was cultured in a growth medium. After reaching subconfluence of not less than 90%, the medium was exchanged with a differentiation medium and the cells were cultured for about 7 days while exchanging the medium every 2 or 3 days until the cells differentiated to form a myotube. • (2) After confirmation of myotube formation under a microscope, the test compound (1 μM) was added to a differentiation medium and cultured for 2 days. The cells were washed with Krebs-Ringer HEPES phosphate buffer (10 mM HEPES, pH 7.4, 131 mM NaCl, 4.7 mM KCl, 2.5 mM CaCl2—2H2O, 1.2 mM MgSO4—7H2O, 1.2 mM KH2PO4), the medium was exchanged with Krebs-Ringer HEPES phosphate buffer added with 5 mM glucose, 0.2% fatty acid-free bovine serum albumin, and cultured at 37° C. for 4 hr. • (3) The lactic acid concentration of the culture supernatant was measured using Detarminer LA kit (Kyowa Medex Co., Ltd.).
The numerical values in Table 2 show the concentration of the compound addition group with the concentration of lactic acid without addition of a drug as 100%.

For test [2], the system named is Mouse-derived myoblast line C2C12 cell. Put plainly: Cell differentiation promoting activity in myoblast (creatine kinase activity). Format: cell-based. As to conditions: Mus musculus, C2C12, 48 h, 2 days, without compound = 100%, read-out: creatine kinase activating action (%); for activity at 1 µM: compound at 1 μM; for activity at 0.01 µM: compound at 0.01 μM (**); for activity at 10 µM: compound at 10 μM (*). How it is done:
• (1) Mouse-derived myoblast line C2C12 cell (Dainippon Pharmaceutical Co., Ltd.) was subcultured in a high glucose Eagle's modified Dulbecco's medium (GIBCO) added with 10% calf fetal bovine serum (GIBCO), 100 unit/mL penicillin and 100 μg/mL streptomycin (hereinafter to be referred to as a growth medium), plated at 5000 cells/cm^2 and cultured at 37° C., under 5% CO2. • (2) When the cells reached subconfluence of not less than 90%, the medium was exchanged with high glucose Eagle's modified Dulbecco's medium (GIBCO) added with (i) 2% horse serum (GIBCO) and (ii) penicillin, streptomycin and a test compound (hereinafter to be referred to as a differentiation medium) and the cells were cultured for 2 days. To the control group was added DMSO solution instead of the test compound. • (3) The cells were washed with PBS, 0.5% NP-40 solution was added, and the cells were lysed by freeze-thawing. The cell extract was centrifuged and the creatine kinase activity in the supernatant was measured as an index of muscle differentiation. The creatine kinase activity was measured using CPKII Test Wako (Wako Pure Chemical Industries, Ltd.) according to the manual of the kit.
The numerical values in Table 1 show creatine kinase activity of the compound addition group when the creatine kinase activity without addition of the compound is 100%, and * means measurement with addition of the compound at 10 μM, ** at 0.01 μM, and others at 1 μM.

With `Cn1ncc2c1-c1c(Oc3cccnc3OCCN3CCCC3=O)sc(C(N)=O)c1CC2` [Ref. Ex. 40, 1-methyl-8-({2-[2-(2-oxopyrrolidin-1-yl)ethoxy]pyridin-3-yl}oxy)-4,5-dihydro-1H-thieno[3,4-g]indazole-6-carboxamide], the activity at 1 µM in test [1] and in test [2] was 120% in each case. For `Cn1ncc2c1-c1c(Oc3ccc(CC(=O)O)cc3)sc(C(N)=O)c1CC2` [Ref. Ex. 24, {4-[(6-carbamoyl-1-methyl-4,5-dihydro-1H-thieno[3,4-g]indazol-8-yl)oxy]phenyl}acetic acid], the activity at 1 µM in test [1] stood at 126%; in test [2], 142%. Consider `COc1cccc(Oc2sc(C(N)=O)c3c2-c2c(cnn2C)CC3)c1` [Ref. Ex. 21, 8-(3-methoxyphenoxy)-1-methyl-4,5-dihydro-1H-thieno[3,4-g]indazole-6-carboxamide], for which the activity at 1 µM in test [1] stood at 184%. For the same compound, in test [2], the activity at 0.01 µM was found to be 198%. As for `CCCOc1sc(C(N)=O)c2c1-c1c(cnn1C)CC2` [Ref. Ex. 3, 1-methyl-8-propoxy-4,5-dihydro-1H-thieno[3,4-g]indazole-6-carboxamide], the activity at 1 µM in test [1] worked out at 170%; in test [2], 179%.

Consider `Cn1ncc2c1-c1c(Oc3ccc4c(c3)OCO4)sc(C(=O)NCc3ccncc3)c1CC2` [Ref. Ex. 28, 8-(1,3-benzodioxol-5-yloxy)-1-methyl-N-(pyridin-4-ylmethyl)-4,5-dihydro-1H-thieno[3,4-g]indazole-6-carboxamide], for which the activity at 1 µM amounted to 170% in test [1] and 186% in test [2]. In the case of `Cn1ncc2c1-c1c(Oc3cnc4ccccc4c3)sc(C(N)=O)c1CC2` [Ref. Ex. 30, 1-methyl-8-(quinolin-3-yloxy)-4,5-dihydro-1H-thieno[3,4-g]indazole-6-carboxamide], the activity at 1 µM in test [1] came to 260%. In addition, the activity at 0.01 µM in test [2] came out at 166%. With `CN(C)c1cccc(Oc2sc(C(N)=O)c3c2-c2c(cnn2C)CC3)c1` [Ref. Ex. 26, 8-[3-(dimethylamino)phenoxy]-1-methyl-4,5-dihydro-1H-thieno[3,4-g]indazole-6-carboxamide], the activity at 1 µM in test [1] amounted to 175%; in test [2], 156%. Turning to `CN(C)c1sc(C(N)=O)c2c1-c1c(cnn1C)CC2` [Ref. Ex. 36, 8-(dimethylamino)-1-methyl-4,5-dihydro-1H-thieno[3,4-g]indazole-6-carboxamide], the activity at 1 µM amounted to 211% in test [1] and 139% in test [2]. `Cn1ncc2c1-c1c(Oc3ccc(OCc4ccc5ccccc5n4)cc3)sc(C(N)=O)c1CC2` [Ref. Ex. 10, 1-methyl-8-[4-(quinolin-2-ylmethoxy)phenoxy]-4,5-dihydro-1H-thieno[3,4-g]indazole-6-carboxamide]: the activity at 1 µM in test [1] stood at 259%. In addition, the activity at 0.01 µM in test [2] was 193%. Taken in the same sequence, the figures for `Cn1ncc2c1-c1c(Oc3ccc(OCc4ccccn4)cc3)sc(C(N)=O)c1CC2` [Ref. Ex. 27, 1-methyl-8-[4-(pyridin-2-ylmethoxy)phenoxy]-4,5-dihydro-1H-thieno[3,4-g]indazole-6-carboxamide] were 198% and 163%. On to `Cn1ncc2c1-c1c(Oc3ccc(OCc4ccncc4)cc3)sc(C(N)=O)c1CC2` [Ref. Ex. 23, 1-methyl-8-[4-(pyridin-4-ylmethoxy)phenoxy]-4,5-dihydro-1H-thieno[3,4-g]indazole-6-carboxamide], for which, in test [1], the activity at 1 µM was 252%. Further, the activity at 0.01 µM in test [2] was found to be 191%. Turning to `Cn1ncc2c1-c1c(Cc3ccccc3)sc(C(N)=O)c1CC2` [Ref. Ex. 16, 8-benzyl-1-methyl-4,5-dihydro-1H-thieno[3,4-g]indazole-6-carboxamide], the activity at 1 µM in test [1] was found to be 194%. For the same compound, the activity at 0.01 µM in test [2] amounted to 150%. Consider `Cn1ncc2c1-c1c(S(=O)(=O)c3ccc4c(c3)OCO4)sc(C(N)=O)c1CC2` [Ref. Ex. 39, 8-(1,3-benzodioxol-5-ylsulfonyl)-1-methyl-4,5-dihydro-1H-thieno[3,4-g]indazole-6-carboxamide], for which the activity at 1 µM came to 207% in test [1] and 176% in test [2]. For the compound `COc1ncccc1Oc1sc(C(N)=O)c2c1-c1c(cnn1C)CC2` [Ref. Ex. 34, 8-[(2-methoxypyridin-3-yl)oxy]-1-methyl-4,5-dihydro-1H-thieno[3,4-g]indazole-6-carboxamide], the activity at 1 µM in test [1] came out at 249%; in test [2] it was 164%. Turning to `CCCS(=O)(=O)c1sc(C(N)=O)c2c1-c1c(cnn1C)CC2` [Ref. Ex. 13, 1-methyl-8-(propylsulfonyl)-4,5-dihydro-1H-thieno[3,4-g]indazole-6-carboxamide], the activity at 1 µM in test [1] was determined as 154%. The activity at 10 µM in test [2] was determined as 128%. For the compound `Cn1ncc2c1-c1c(Oc3cccnc3N)sc(C(N)=O)c1CC2` [Ref. Ex. 32, 8-[(2-aminopyridin-3-yl)oxy]-1-methyl-4,5-dihydro-1H-thieno[3,4-g]indazole-6-carboxamide], the values for the activity at 1 µM in test [1] and in test [2] were 295% and 101%, respectively. As to `Cn1ncc2c1-c1c(Oc3ccc(C[C@H](N)C(=O)N4CCOCC4)cc3)sc(C(N)=O)c1CC2` [Ref. Ex. 25, 8-{4-[(2S)-2-amino-3-morpholin-4-yl-3-oxopropyl]phenoxy}-1-methyl-4,5-dihydro-1H-thieno[3,4-g]indazole-6-carboxamide], the activity at 1 µM in test [1] turned out to be 235%; in test [2] it was 180%. Taken in the same sequence, the figures for `Cc1cccc(Oc2sc(C(N)=O)c3c2-c2c(cnn2C)CC3)n1` [Ref. Ex. 38, 1-methyl-8-[(6-methylpyridin-2-yl)oxy]-4,5-dihydro-1H-thieno[3,4-g]indazole-6-carboxamide] were 157% and 152%. Taken in the same sequence, the figures for `NC(=O)c1sc(Oc2ccccc2)c2c1CCc1cn[nH]c1-2` [Ref. Ex. 20, 8-phenoxy-4,5-dihydro-1H-thieno[3,4-g]indazole-6-carboxamide] were 167% and 121%.

For `Cn1ncc2c1-c1c(OCc3ccncc3)sc(C(N)=O)c1CC2` [Ref. Ex. 5, 1-methyl-8-(pyridin-4-ylmethoxy)-4,5-dihydro-1H-thieno[3,4-g]indazole-6-carboxamide], the activity at 1 µM is 124% in test [1] and 113% in test [2]. On to `CN(CCOc1ncccc1Oc1sc(C(N)=O)c2c1-c1c(cnn1C)CC2)c1ccccc1` [Ref. Ex. 41, 1-methyl-8-[(2-{2-[methyl(phenyl)amino]ethoxy}pyridin-3-yl)oxy]-4,5-dihydro-1H-thieno[3,4-g]indazole-6-carboxamide], for which the results for the activity at 1 µM in test [1] and in test [2] were 120% and 130%, respectively. As to `Cn1ncc2c1-c1c(Oc3ccc4c(c3)OCO4)sc(C(N)=O)c1CC2(C)C` [Ref. Ex. 29, 8-(1,3-benzodioxol-5-yloxy)-1,4,4-trimethyl-4,5-dihydro-1H-thieno[3,4-g]indazole-6-carboxamide], the activity at 1 µM came out at 264% in test [1] and 183% in test [2]. On to `COCCOc1ccc(Oc2sc(C(N)=O)c3c2-c2c(cnn2C)CC3)cn1` [Ref. Ex. 42, 8-{[6-(2-methoxyethoxy)pyridin-3-yl]oxy}-1-methyl-4,5-dihydro-1H-thieno[3,4-g]indazole-6-carboxamide], for which, in test [1], the activity at 1 µM worked out at 319%. In addition, in test [2], the activity at 0.01 µM was determined as 179%. For the compound `Cn1ncc2c1-c1c(Oc3ncccn3)sc(C(N)=O)c1CC2` [Ref. Ex. 37, 1-methyl-8-(pyrimidin-2-yloxy)-4,5-dihydro-1H-thieno[3,4-g]indazole-6-carboxamide], the activity at 1 µM came out at 255% in test [1] and 129% in test [2]. With `CCCCc1sc(C(N)=O)c2c1-c1c(cnn1C)CC2` [Ref. Ex. 14, 8-butyl-1-methyl-4,5-dihydro-1H-thieno[3,4-g]indazole-6-carboxamide], the activity at 1 µM came out at 265% in test [1] and 151% in test [2].

In the case of `Cn1ncc2c1-c1c(Nc3ccccc3)sc(C(N)=O)c1CC2` [Ref. Ex. 12, 1-methyl-8-(phenylamino)-4,5-dihydro-1H-thieno[3,4-g]indazole-6-carboxamide], the activity at 10 µM in test [2] came out at 162%.
